From ChEMBL document CHEMBL1201862, “PubChem BioAssay data set” (2004)
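Test compounds were applied to cells in 96-well plates for 48 hours at 5 doses. GI50 = concentration required for 50% inhibition of growth.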 Calls of active or inactive are those of the source. Rule as the data show it: active = GI50 up to about 1.1 µM and inactive = higher.

Tests used:
Test in all cases: NCI-60 cell line screen, 48 h
[1] = test system: OVCAR-8
[2] = test system: COLO 205
[3] = test system: SNB-19
[4] = test system: SN12C
[5] = test system: CAKI-1
[6] = test system: KM12
[7] = test system: NCI-H522
[8] = test system: M14
[9] = test system: HL-60
[10] = test system: NCI-H460
[11] = test system: OVCAR-4
[12] = test system: DMS-273
[13] = test system: HOP-62
[14] = test system: LOX IMVI
[15] = test system: PC-3
[16] = test system: DU-145
[17] = test system: BT-549
[18] = test system: MDA-MB-231
[19] = test system: MDA-N
[20] = test system: Hs-578T

Row | Structure (SMILES) | GI50 [1] | GI50 [2] | GI50 [3] | GI50 [4] | GI50 [5] | GI50 [6] | GI50 [7] | GI50 [8] | GI50 [9] | GI50 [10] | GI50 [11] | GI50 [12] | GI50 [13] | GI50 [14] | GI50 [15] | GI50 [16] | GI50 [17] | GI50 [18] | GI50 [19] | GI50 [20]
1 | CC1C=C(OC(=O)c2ccccc2)C(=O)C(n2cc(F)c(=O)[nH]c2=O)O1 (configuration not stated) | 84.3 µM (inactive) | 50.9 µM (inactive) | > 100 µM (inactive) | > 100 µM (inactive) | 62.1 µM (inactive) | 46 µM (inactive) | > 100 µM (inactive) | 51.3 µM (inactive) | 64.3 µM (inactive) | 19.5 µM (inactive) | 53.2 µM (inactive) | 42.8 µM (inactive) | 27.8 µM (inactive) | – | – | – | – | – | – | –
2 | Cc1cccc(C(C)(C)C)c1NC(=O)CCc1n[nH]c(=S)o1 | > 100 µM (inactive) | 16.6 µM (inactive) | > 100 µM (inactive) | > 100 µM (inactive) | > 100 µM (inactive) | > 100 µM (inactive) | > 100 µM (inactive) | > 100 µM (inactive) | > 100 µM (inactive) | > 100 µM (inactive) | > 100 µM (inactive) | 40.9 µM (inactive) | > 100 µM (inactive) | – | – | – | – | – | – | –
3 | C[n+]1ccc(Nc2ccc(NC(=O)c3ccc(Nc4cc[n+](C)c5ccc([N+](=O)[O-])cc45)cc3[N+](=O)[O-])cc2)cc1 | 22.8 µM (inactive) | 22.5 µM (inactive) | > 59.2 µM (inactive) | 48.8 µM (inactive) | > 73.1 µM (inactive) | 47.8 µM (inactive) | 13.8 µM (inactive) | 63.4 µM (inactive) | – | 23.7 µM (inactive) | 34.5 µM (inactive) | 27.2 µM (inactive) | 47.1 µM (inactive) | > 39.7 µM (inactive) | – | – | – | – | – | –
4 | O=c1cc(-c2ccc(O)cc2)oc2cc(O[C@@H]3O[C@H](CO)[C@@H](O)[C@H](O)[C@H]3O)cc(O)c12 [APIGETRIN] | 31.7 µM (inactive) | > 100 µM (inactive) | 39.4 µM (inactive) | > 100 µM (inactive) | 0.239 µM (active) | 13.9 µM (inactive) | 31.1 µM (inactive) | > 100 µM (inactive) | 80.5 µM (inactive) | 34.2 µM (inactive) | 28.2 µM (inactive) | – | > 100 µM (inactive) | 33.1 µM (inactive) | 33.2 µM (inactive) | 58.3 µM (inactive) | 24.4 µM (inactive) | 86.1 µM (inactive) | 46 µM (inactive) | 40 µM (inactive)
5 | CC(C)(C)OC(=O)C1=C(N)N(Cc2ccccc2)C2(C)C=CC(=O)C=C12 (configuration not stated) | 2.45 µM (inactive) | 2.3 µM (inactive) | 16.1 µM (inactive) | 8.47 µM (inactive) | 1.83 µM (inactive) | 6.49 µM (inactive) | 1.67 µM (inactive) | 2.98 µM (inactive) | 1.88 µM (inactive) | 15.5 µM (inactive) | 3.36 µM (inactive) | – | 16 µM (inactive) | 2.34 µM (inactive) | 7.21 µM (inactive) | 4.04 µM (inactive) | 1.95 µM (inactive) | 6.98 µM (inactive) | 4.79 µM (inactive) | 14.5 µM (inactive)
6 | c1ccc2c(c1)Cc1c(Cc3csc4ccccc34)ccc3cccc-2c13 | > 100 µM (inactive) | > 100 µM (inactive) | > 100 µM (inactive) | > 100 µM (inactive) | – | > 100 µM (inactive) | 41.3 µM (inactive) | > 100 µM (inactive) | > 100 µM (inactive) | > 100 µM (inactive) | 54 µM (inactive) | > 100 µM (inactive) | > 100 µM (inactive) | – | – | – | – | – | – | –
7 | COc1ccc(C(=O)/C=C/c2ccc(O)c(O)c2)c(OC)c1 | 10.8 µM (inactive) | 15.1 µM (inactive) | 2.96 µM (inactive) | 1.22 µM (inactive) | 6.27 µM (inactive) | 1.01 µM (active) | 0.245 µM (active) | 3.99 µM (inactive) | 0.377 µM (active) | 3.04 µM (inactive) | 12.4 µM (inactive) | – | 4.32 µM (inactive) | 3.58 µM (inactive) | 4.8 µM (inactive) | 3.16 µM (inactive) | 3.26 µM (inactive) | 2.71 µM (inactive) | 0.454 µM (active) | 2.19 µM (inactive)
8 | CCOc1c(OC)cc(-c2nc3n(n2)C(=O)C(CC)S3)cc1OC (configuration not stated) | > 10 µM (inactive) | > 10 µM (inactive) | > 10 µM (inactive) | > 10 µM (inactive) | > 10 µM (inactive) | > 10 µM (inactive) | > 10 µM (inactive) | > 10 µM (inactive) | > 10 µM (inactive) | > 10 µM (inactive) | > 10 µM (inactive) | – | > 10 µM (inactive) | > 10 µM (inactive) | > 10 µM (inactive) | > 10 µM (inactive) | > 10 µM (inactive) | > 10 µM (inactive) | > 10 µM (inactive) | > 10 µM (inactive)
